# Experimental data from ChEMBL document CHEMBL1201862, “PubChem BioAssay data set” (2004).
# The source made the active and inactive calls.
# What was measured:
# [1] = T. b. rhodesiense proliferation inhibition, dose response, STIB900 strain, plate reader, dry powder (AID 651894); format: functional, cell-based
# [2] = T. cruzi growth inhibition in host cells, dose response, cell-based, plate reader, dry powder, set 2 (AID 652275); format: functional
# [3] = T. cruzi amastigote growth inhibition, dose response, Tulahuen strain, L-6 host cells, dry powder (AID 651890); format: functional, cell-based
# [4] = growth inhibition of intracellular T. cruzi, dose response, cell-based, plate reader, dry powder samples (AID 651845); format: functional
# [5] = L. donovani amastigote growth inhibition, dose response, axenic amastigotes, plate reader, dry powder (AID 651892); format: functional, cell-based
# [6] = P. falciparum blood-stage growth inhibition, dose response, NF54 strain, plate reader, dry powder (AID 651889); format: functional, cell-based
# [7] = T. cruzi intracellular amastigote growth inhibition, dose response, imaging, CA-I/72 strain, bovine embryo skeletal muscle, dry powder (AID 651885); format: functional, cell-based
# [8] = L-6 rat myoblast cytotoxicity, dose response, counter-screen for T. cruzi inhibitor project, cell-based, plate reader, dry powder (AID 651895); format: functional
# [9] = HepG2 cell cytotoxicity, dose response, cytotoxicity control, CellTiter-Glo luminescence, cherry-pick, set 2 (AID 743395); format: functional
# [10] = biological target: T1, Corticotropin-releasing factor receptor 2/Corticotropin-releasing factor-binding protein (Homo sapiens, UniProt P24387+Q13324); assay: activators of CRF receptor 2 with binding protein – uHTS hits, confirmation (AID 602473); format: functional; settings: read-out: EC50_Mean
# T1 sequence (Q13324 whole entry): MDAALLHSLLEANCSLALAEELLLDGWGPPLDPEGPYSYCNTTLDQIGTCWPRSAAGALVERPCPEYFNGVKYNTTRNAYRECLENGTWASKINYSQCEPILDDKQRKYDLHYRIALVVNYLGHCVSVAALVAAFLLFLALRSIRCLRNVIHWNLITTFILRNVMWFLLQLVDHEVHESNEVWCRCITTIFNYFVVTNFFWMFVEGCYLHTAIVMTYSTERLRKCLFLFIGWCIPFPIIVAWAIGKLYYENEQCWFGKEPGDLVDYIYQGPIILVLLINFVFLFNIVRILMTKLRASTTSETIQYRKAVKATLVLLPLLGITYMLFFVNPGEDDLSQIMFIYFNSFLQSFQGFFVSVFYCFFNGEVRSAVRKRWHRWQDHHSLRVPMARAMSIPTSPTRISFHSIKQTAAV
# T1 sequence (P24387 whole entry): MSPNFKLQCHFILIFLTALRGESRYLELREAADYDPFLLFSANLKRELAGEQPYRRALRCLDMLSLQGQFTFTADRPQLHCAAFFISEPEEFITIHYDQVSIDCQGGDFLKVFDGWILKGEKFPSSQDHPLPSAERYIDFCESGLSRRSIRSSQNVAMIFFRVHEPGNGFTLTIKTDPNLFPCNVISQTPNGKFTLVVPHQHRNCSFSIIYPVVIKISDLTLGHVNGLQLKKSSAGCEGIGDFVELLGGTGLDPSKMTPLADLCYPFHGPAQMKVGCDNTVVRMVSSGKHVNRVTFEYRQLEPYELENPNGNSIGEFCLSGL
# cells [11] = settings: A549
# [12] = HepG2 cell cytotoxicity, dose response, cytotoxicity control, ATP luminescence, cherry-pick, set 6 (AID 1053125); format: functional, cell-based
# [13] = Counterscreen for inhibitors of Trypanosoma brucei methionyl tRNA synthetase (MetRS): Luminescence-based cell-based high throughput dose response assay to identify compounds that are cytotoxic to Jurkat human T lymphocyte cells.; format: functional
# [14] = biological target: T2, Methionyl-tRNA synthetase, putative (Trypanosoma brucei brucei, UniProt Q38C91); format: functional, Trypanosoma brucei brucei strain 927/4 GUTat10.1
# T2 sequence (Q38C91 whole entry): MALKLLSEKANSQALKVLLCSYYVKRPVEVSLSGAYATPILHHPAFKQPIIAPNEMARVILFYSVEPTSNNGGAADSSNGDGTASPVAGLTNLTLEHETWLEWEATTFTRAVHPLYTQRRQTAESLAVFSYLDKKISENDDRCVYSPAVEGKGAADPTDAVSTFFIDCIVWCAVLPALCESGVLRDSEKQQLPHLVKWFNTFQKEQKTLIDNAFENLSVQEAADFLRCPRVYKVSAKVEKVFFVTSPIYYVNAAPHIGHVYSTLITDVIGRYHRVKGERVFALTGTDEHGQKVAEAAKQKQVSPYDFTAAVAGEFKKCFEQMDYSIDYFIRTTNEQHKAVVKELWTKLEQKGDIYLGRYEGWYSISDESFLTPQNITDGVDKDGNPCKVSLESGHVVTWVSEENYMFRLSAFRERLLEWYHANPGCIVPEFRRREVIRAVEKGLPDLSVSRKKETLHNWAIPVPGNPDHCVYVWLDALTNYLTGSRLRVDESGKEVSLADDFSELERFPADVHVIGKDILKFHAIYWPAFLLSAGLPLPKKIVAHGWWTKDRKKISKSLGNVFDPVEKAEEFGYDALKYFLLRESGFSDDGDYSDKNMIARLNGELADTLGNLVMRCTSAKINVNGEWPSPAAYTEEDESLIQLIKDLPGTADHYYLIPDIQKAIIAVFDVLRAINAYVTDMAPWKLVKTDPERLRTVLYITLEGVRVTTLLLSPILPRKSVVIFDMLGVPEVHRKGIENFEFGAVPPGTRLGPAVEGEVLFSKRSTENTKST
# [15] = Late stage counterscreen for inhibitors of Trypanosoma brucei methionyl tRNA synthetase (MetRS): Luminescence-based cell-based high throughput dose response assay to identify compounds that are cytotoxic to Jurkat human T lymphocyte cells.; format: functional
# [16] = biological target: T2, Methionyl-tRNA synthetase, putative; format: functional, Trypanosoma brucei brucei strain 927/4 GUTat10.1; remark: listed apart in the source
# [17] = HEK293T cell cytotoxicity, dose response, cytotoxicity control, CellTiter-Glo luminescence, dry powder, set 2 (AID 720595); format: functional, cell-based; settings: HEK293
# [18] = HepG2 hepatoma cell cytotoxicity, dose response, cytotoxicity control, CellTiter-Glo luminescence, dry powder, set 3 (AID 720594); format: functional, cell-based
# [19] = biological target: Metabotropic glutamate receptor 5 (Rattus norvegicus, UniProt P31424); assay: Identification of a glycine sulfonamide based non-MPEP site positive allosteric potentiator (PAM) of mGlu5 (calcium_assay).; format: functional
# [20] = HEK293 Cytotoxicity Assay Measured in Cell-Based System Using Plate Reader - 7071-01_Inhibitor_Dose_CherryPick_Activity_Set2.; format: functional
# HeLa = assay: HeLa cell cytotoxicity, dose response, cytotoxicity control, ATP luminescence, cherry-pick samples (AID 687004); format: functional, cell-based; settings: Homo sapiens
# HEK293 = assay: HEK293T cell cytotoxicity, dose response, cytotoxicity control, ATP luminescence, cherry-pick samples (AID 687005); format: functional, cell-based; settings: Homo sapiens;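 note: cells exposed to compound for 48 hours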
# [21] = biological target: Photoreceptor-specific nuclear receptor (Homo sapiens, UniProt Q9Y5X4); format: functional, cell-based;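 note: CHO-S cells with Gal4-NCOR and VP16-NR2E3 two-hybrid luciferase reporter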
# Chain of Photoreceptor-specific nuclear receptor (Q9Y5X4 whole entry, the tested form may be a part): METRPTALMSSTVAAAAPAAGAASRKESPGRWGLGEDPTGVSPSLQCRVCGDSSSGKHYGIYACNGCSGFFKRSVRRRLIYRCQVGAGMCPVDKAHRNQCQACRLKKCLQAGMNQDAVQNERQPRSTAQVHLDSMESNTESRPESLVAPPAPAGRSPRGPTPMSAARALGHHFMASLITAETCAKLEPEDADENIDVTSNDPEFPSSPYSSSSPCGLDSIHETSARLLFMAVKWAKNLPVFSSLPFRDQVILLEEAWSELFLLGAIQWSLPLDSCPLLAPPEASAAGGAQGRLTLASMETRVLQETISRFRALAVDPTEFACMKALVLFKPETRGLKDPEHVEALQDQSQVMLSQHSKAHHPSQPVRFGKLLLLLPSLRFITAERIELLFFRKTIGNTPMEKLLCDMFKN
# [22] = biological target: COUP transcription factor 2 (Homo sapiens, UniProt P24468); assay: Luminescence-based cell-based high throughput dose response assay to identify inhibitors of COUP-TFII (NR2F2).; format: functional;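 note: HEK293 cells transiently cotransfected with COUP-TFII expression vector and reporter; luciferase reporter luminescence driven by COUP-TFII from the pX2-168 reporter plasmid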
# Chain of COUP transcription factor 2 (P24468 whole entry): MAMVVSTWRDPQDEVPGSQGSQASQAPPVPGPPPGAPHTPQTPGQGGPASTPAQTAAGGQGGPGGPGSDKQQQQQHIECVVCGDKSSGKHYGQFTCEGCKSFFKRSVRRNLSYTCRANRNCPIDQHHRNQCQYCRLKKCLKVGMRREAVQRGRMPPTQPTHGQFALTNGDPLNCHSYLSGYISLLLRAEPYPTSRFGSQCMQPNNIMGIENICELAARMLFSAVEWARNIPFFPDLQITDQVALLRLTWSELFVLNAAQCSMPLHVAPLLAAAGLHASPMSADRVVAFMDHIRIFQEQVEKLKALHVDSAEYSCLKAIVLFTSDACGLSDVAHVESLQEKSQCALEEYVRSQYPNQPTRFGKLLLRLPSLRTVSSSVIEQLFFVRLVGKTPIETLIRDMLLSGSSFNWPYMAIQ
# [23] = Late stage assay provider results from the probe development effort to identify inhibitors of the Plasmodium falciparum M18 Aspartyl Aminopeptidase (M18AAP): radiolabel-based cell-based dose response assay to identify compounds that inhibit P. falciparum growth in RBCs, Set 2..; format: functional
# [24] = biological target: Potassium channel subfamily K member 9 (Homo sapiens, UniProt Q9NPC2); assay: TASK3 (KCNK9) channel inhibitors, thallium flux, SAR follow-up, selectivity assay for TASK1 inhibitor project, cell-based, FluxOR thallium flux, concentration-response (AID 652211); format: functional;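 note: potency is for inhibitors of the channel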
# Chain of Potassium channel subfamily K member 9 (Q9NPC2 whole entry): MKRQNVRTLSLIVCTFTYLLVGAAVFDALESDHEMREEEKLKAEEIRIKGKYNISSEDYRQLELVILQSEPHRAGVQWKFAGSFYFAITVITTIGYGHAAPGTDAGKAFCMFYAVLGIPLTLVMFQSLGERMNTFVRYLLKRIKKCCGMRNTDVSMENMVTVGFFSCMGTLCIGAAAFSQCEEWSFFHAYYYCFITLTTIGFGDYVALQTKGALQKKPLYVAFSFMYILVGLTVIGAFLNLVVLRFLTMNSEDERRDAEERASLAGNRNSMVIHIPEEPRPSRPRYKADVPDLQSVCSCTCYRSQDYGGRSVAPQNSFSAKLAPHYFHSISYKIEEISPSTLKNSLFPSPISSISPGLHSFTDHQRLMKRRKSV
# [25] = biological target: Potassium channel subfamily K member 3 (Homo sapiens, UniProt O14649); assay: TASK1 (KCNK3) potassium channel inhibitors, SAR follow-up, CHO cells, FluxOR thallium flux (AID 652212); format: functional
# Chain of Potassium channel subfamily K member 3 (O14649 whole entry): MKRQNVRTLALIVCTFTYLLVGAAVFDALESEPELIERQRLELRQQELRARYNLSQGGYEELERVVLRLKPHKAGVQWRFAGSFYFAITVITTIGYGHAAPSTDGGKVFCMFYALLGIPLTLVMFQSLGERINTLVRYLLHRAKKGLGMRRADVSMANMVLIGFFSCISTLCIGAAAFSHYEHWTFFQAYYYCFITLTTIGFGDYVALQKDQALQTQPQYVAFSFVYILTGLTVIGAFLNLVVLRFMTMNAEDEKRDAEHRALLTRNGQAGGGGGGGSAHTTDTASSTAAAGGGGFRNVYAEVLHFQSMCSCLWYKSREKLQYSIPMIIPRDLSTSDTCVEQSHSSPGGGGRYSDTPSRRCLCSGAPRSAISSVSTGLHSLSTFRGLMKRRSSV
# [26] = biological target: ATP-dependent translocase ABCB1 (Homo sapiens, UniProt P08183); assay: ABCB1 efflux inhibition concentration-response, dose response, Jurkat-DNR cells, JC-1, flow cytometry, follow-up (AID 489002); format: functional
# Chain of ATP-dependent translocase ABCB1 (P08183 whole entry): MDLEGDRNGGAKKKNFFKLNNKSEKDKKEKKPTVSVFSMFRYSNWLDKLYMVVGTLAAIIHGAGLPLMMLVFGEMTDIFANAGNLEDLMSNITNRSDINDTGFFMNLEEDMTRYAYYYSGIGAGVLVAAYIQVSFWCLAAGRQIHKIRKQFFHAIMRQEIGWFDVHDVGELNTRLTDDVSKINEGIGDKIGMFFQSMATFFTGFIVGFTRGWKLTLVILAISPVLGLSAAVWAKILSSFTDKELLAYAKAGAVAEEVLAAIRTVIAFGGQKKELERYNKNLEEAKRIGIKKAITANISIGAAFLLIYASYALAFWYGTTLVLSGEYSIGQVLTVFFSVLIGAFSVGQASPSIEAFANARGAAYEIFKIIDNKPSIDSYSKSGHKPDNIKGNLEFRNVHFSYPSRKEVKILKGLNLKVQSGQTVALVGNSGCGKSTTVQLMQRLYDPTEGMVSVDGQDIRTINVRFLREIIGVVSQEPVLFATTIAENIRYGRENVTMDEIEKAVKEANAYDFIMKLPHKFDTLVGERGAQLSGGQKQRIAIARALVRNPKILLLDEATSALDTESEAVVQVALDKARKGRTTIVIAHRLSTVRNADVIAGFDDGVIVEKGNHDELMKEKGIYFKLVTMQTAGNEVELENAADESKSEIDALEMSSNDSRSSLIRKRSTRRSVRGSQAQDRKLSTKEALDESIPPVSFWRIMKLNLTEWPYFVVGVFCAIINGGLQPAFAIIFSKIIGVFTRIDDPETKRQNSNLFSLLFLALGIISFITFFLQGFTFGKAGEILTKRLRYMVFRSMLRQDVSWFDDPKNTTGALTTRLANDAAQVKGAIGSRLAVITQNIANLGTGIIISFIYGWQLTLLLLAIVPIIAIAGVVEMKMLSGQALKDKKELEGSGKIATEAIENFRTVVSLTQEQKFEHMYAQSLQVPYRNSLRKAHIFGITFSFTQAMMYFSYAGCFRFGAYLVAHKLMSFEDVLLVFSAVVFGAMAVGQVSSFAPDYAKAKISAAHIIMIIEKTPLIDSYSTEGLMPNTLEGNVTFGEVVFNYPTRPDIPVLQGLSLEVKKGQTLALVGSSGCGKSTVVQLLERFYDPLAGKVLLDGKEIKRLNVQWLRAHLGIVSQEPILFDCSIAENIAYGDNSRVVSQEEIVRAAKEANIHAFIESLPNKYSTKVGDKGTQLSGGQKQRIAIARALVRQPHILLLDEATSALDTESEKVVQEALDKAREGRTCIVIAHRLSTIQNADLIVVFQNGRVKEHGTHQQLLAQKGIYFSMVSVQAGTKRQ
# Paired box protein Pax-8 = Paired box protein Pax-8 (Homo sapiens, UniProt Q06710); assay: inhibitors of PAX8-driven TPO luciferase reporter, dose response, RMG-I cells, cherry-pick (AID 687027); format: functional, cell-based;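 note: luciferase reporter driven by Pax8 target thyroperoxidase promoter measured by SteadyGlo luminescence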
# Chain of Paired box protein Pax-8 (Q06710 whole entry): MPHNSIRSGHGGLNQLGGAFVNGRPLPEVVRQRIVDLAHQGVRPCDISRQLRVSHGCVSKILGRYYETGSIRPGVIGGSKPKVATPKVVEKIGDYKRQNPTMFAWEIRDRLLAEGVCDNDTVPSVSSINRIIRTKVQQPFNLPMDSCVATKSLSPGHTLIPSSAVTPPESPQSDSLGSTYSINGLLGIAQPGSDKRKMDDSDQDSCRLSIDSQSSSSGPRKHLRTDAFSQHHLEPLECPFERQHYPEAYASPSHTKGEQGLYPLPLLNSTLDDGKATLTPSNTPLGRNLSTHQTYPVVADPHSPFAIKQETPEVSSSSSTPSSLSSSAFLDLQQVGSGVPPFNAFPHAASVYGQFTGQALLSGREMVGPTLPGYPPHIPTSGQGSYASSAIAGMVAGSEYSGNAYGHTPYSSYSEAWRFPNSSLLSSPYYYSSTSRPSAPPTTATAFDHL
# [27] = IOSE-T80 ovarian epithelial cell cytotoxicity, dose response, cytotoxicity control for PAX8 inhibitor project, plate reader, dry powder samples (AID 743045); format: functional, cell-based
# [28] = A2780 ovarian cancer cell cytotoxicity, dose response, cytotoxicity control, plate reader, dry powder samples (AID 743046); format: functional, cell-based
# [29] = IGROV1 ovarian cancer cell cytotoxicity, dose response, PAX8 inhibitor project, plate reader, dry powder samples (AID 743043); format: functional, cell-based; settings: IGROV-1
# [30] = NIH:OVCAR-3 ovarian cancer cell cytotoxicity, dose response, PAX8 inhibitor project, plate reader, dry powder samples (AID 743044); format: functional, cell-based
# [31] = A549 cell cytotoxicity, dose response, cytotoxicity control, cherry-picks, 26 µM top dose (AID 1053119); format: functional, cell-based
# [32] = inhibitors of fibronectin matrix deposition, dose response, AH1F cells, Alexa488-FN fluorescence, cherry-picks (AID 1035475); format: functional, cell-based
# [33] = HEK293 cell cytotoxicity, dose response, cytotoxicity control, cherry-picks, set 5 (AID 1053117); format: functional, cell-based
# cells [34] = settings: HEK293;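 note: cells exposed to compound for 48 hours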
# cells [35] = assay: cells
# [36] = biological target: 1-phosphatidylinositol 4,5-bisphosphate phosphodiesterase gamma-1 (Homo sapiens, UniProt P19174); assay: Counterscreen for inhibitors of phospholipase C isozymes (PLC-B3): Fluorescence-based biochemical high throughput dose response assay to identify inhibitors of phospholipase C isozymes (PLC-gamma1).
# [37] = biological target: 1-phosphatidylinositol 4,5-bisphosphate phosphodiesterase beta-3 (Homo sapiens, UniProt Q01970); assay: Fluorescence-based biochemical high throughput dose response assay to identify inhibitors of phospholipase C isozymes (PLC-B3).
# Chain of 1-phosphatidylinositol 4,5-bisphosphate phosphodiesterase beta-3 (Q01970 whole entry): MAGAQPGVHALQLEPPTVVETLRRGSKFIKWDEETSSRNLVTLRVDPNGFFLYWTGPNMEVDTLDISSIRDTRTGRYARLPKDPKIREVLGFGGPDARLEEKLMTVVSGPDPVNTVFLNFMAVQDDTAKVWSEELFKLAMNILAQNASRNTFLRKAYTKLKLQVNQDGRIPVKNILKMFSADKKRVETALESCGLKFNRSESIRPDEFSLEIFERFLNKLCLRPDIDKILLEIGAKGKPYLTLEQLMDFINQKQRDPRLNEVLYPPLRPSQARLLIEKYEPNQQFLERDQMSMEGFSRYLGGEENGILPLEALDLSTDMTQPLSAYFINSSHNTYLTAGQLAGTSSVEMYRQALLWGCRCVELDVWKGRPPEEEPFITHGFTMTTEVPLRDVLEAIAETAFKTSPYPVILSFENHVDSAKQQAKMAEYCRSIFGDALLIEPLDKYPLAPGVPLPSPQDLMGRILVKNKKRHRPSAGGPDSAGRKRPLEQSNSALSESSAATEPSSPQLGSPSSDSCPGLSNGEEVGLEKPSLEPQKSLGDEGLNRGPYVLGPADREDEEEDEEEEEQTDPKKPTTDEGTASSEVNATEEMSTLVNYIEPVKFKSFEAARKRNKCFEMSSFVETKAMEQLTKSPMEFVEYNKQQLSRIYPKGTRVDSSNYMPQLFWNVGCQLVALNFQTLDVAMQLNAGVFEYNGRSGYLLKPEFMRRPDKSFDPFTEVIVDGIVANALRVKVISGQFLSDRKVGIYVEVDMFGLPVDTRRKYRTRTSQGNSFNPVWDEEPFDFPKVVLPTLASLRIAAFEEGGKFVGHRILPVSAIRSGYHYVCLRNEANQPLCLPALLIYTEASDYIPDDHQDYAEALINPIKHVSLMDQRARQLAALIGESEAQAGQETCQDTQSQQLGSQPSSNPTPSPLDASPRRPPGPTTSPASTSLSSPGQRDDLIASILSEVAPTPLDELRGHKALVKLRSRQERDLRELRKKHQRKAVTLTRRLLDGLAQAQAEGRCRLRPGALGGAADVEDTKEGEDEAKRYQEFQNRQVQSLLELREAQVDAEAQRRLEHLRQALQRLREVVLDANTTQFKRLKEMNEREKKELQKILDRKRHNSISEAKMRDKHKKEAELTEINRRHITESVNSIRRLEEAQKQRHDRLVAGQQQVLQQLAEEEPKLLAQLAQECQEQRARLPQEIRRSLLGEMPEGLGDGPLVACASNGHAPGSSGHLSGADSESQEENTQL
smiles,measurement,setting,value
C[C@@H]1CN([C@@H](C)CO)C(=O)c2cccc(NC(=O)c3ccncc3)c2O[C@@H]1CN(C)Cc1ccc(Oc2ccccc2)cc1,IC50,[1],1.02 µM (inactive)
same,AC50,[2],276 nM (active)
same,IC50,[3],666 nM (active)
same,AC50,[4],506 nM (active)
same,IC50,[5],> 100 µM (inactive)
same,IC50,[6],873 nM (inactive)
same,IC50,[7],550 nM (active)
same,IC50,[8],47.6 µM (inactive)
COc1ccc(NC(=O)c2cc(S(=O)(=O)N3CCOCC3)ccc2C)cc1S(=O)(=O)N1CCOCC1,AbsAC35_uM,[9],36.86 µM
CCCCCCc1cc2cc(S(=O)(=O)c3ccc(F)cc3)c(=O)oc2cc1O,EC50,[10],> 53 µM (inactive)
same,AC50,cells [11],42.1 µM (active)
same,AC50,[12],50.4 µM (active)
O=C(Nc1ccc(F)c(Cl)c1)C1CC(=O)n2c(nc3ccccc32)N1 (stereo not given),IC50,[13],83.3 µM (inactive)
same,IC50,[14],1.47 µM (active)
same,IC50,[15],> 83.3 µM (inactive)
same,IC50,[16],2.34 µM (active)
CC1CCN(S(=O)(=O)c2ccc(C(=O)Nc3nnc(C4=COCCO4)o3)cc2)CC1,AC50,[17],48.7 µM (active)
same,AC50,[18],> 52 µM (inactive)
CS(=O)(=O)N1c2ccccc2CCC1C(=O)Nc1cccnc1 (stereo not given),EC50,[19],3.62 µM
COc1ccc(CN(C)C[C@H]2Oc3ccc(NC(=O)Nc4ccc(F)cc4)cc3CC(=O)N([C@@H](C)CO)C[C@@H]2C)cc1,AC50,[20],26.3 µM (active)
same,AC50,HeLa,> 52 µM (inactive)
same,AC50,HEK293,26.3 µM (active)
OC[C@@H]1CN(Cc2ccc(-c3ccccc3)cc2)C[C@H](n2cnc3c(NCc4ccncc4)ncnc32)O1,IC50,[21],1.52 µM (active)
same,IC50,[22],10 µM (inactive)
COc1ccc(CCNC2CCN(Cc3ccccc3)CC2)cc1OC,IC50,[23],6.9 µM (active)
Cc1cccc(C(=O)Nc2cccc(NC(=O)C3CCCCC3)c2)c1,IC50,[24],11.9 µM (active)
same,IC50,[25],17 nM (active)
O=C(Nc1ccccc1)C1CCN(c2cc(-c3ccco3)nc3cc(-c4ccccc4)nn23)CC1,EC50,[26],0.1399 µM
C[C@@H]1CN([C@H](C)CO)C(=O)c2cc(NC(=O)Nc3ccc(C(F)(F)F)cc3)ccc2O[C@@H](C)CCCCO[C@@H]1CN(C)Cc1ccncc1,AC50,Paired box protein Pax-8,4.21 µM (active)
same,AC50,[27],56.4 µM (active)
same,AC50,[28],56.9 µM (active)
same,AC50,[29],41.8 µM (active)
same,AC50,[30],14.8 µM (active)
CCOc1cccc(C(=O)Nc2ccc(N(CC)CC)cc2)c1,AC50,[31],> 52 µM (inactive)
same,AC50,[32],64.4 µM (active)
same,AC50,[33],34.6 µM (active)
Cc1ccc2[nH]c3ccccc3c(=O)c2c1,AC50,cells [34],38.6 µM (active)
same,AC50,cells [35],7.34 µM (active)
CC/C(NCC1CCCO1)=C1/C(=O)NC(=O)N(Cc2ccccc2)C1=O (stereo not given),IC50,[36],> 122 µM (inactive)
same,IC50,[37],> 122 µM (inactive)
